Experimental data from ChEMBL document CHEMBL1201862, “PubChem BioAssay data set” (2004).
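Results reflect a 48-hour exposure of cells in 96-well plates to compound at five concentrations. At the GI50, growth is halved.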 Active and inactive are the calls of the source. No stated cut-off is given here; in the data, active = GI50 up to about 1.1 µM and inactive = higher.

What was measured:
Experiment in all cases: NCI tumour cell line growth inhibition, 48 h
[1] = system: ACHN
[2] = system: EKVX
[3] = system: HCC 2998
[4] = system: HCT-15
[5] = system: HOP-62
[6] = system: HOP-92
[7] = system: HT-29
[8] = system: Hs-578T
[9] = system: LOX IMVI
[10] = system: MDA-MB-435
[11] = system: NCI-H226
[12] = system: OVCAR-3
[13] = system: OVCAR-4
[14] = system: SK-OV-3
[15] = system: SNB-75
[16] = system: TK-10
[17] = system: U-251
[18] = system: K562
[19] = system: PC-3
[20] = system: MDA-N

Structure (SMILES)	GI50 [1]	GI50 [2]	GI50 [3]	GI50 [4]	GI50 [5]	GI50 [6]	GI50 [7]	GI50 [8]	GI50 [9]	GI50 [10]	GI50 [11]	GI50 [12]	GI50 [13]	GI50 [14]	GI50 [15]	GI50 [16]	GI50 [17]	GI50 [18]	GI50 [19]	GI50 [20]
O=C(CSCC(=O)N/N=C\c1ccc(F)cc1F)N/N=C\c1ccc(F)cc1F	> 100 µM (inactive)	> 100 µM (inactive)	> 100 µM (inactive)	> 100 µM	> 100 µM (inactive)	> 100 µM (inactive)	> 100 µM (inactive)	> 100 µM (inactive)	> 100 µM (inactive)	> 100 µM (inactive)	> 100 µM (inactive)	> 100 µM (inactive)	> 100 µM (inactive)	> 100 µM (inactive)	> 100 µM (inactive)	> 100 µM (inactive)	> 100 µM (inactive)			
CCCCNC1CCC2(SCCS2)c2[nH]c3ccccc3c21 (stereo unspecified)	27.9 µM (inactive)	37.2 µM (inactive)	18.9 µM (inactive)	4.78 µM	> 53.8 µM (inactive)	28.4 µM (inactive)	25.2 µM (inactive)	29.8 µM (inactive)	2.64 µM (inactive)	5.21 µM (inactive)	42 µM (inactive)	8.41 µM (inactive)	> 54.1 µM (inactive)	49.8 µM (inactive)	43.1 µM (inactive)	13.2 µM (inactive)	43.1 µM (inactive)	10.1 µM (inactive)	7.46 µM (inactive)	
O=C(Nc1ccc(F)cc1)c1cc2ccc(O)cc2o/c1=N\c1cccc(F)c1	32.8 µM (inactive)	22.9 µM (inactive)	55.6 µM (inactive)	27.5 µM	42.5 µM (inactive)		> 100 µM (inactive)		25.4 µM (inactive)	31.8 µM (inactive)		38.3 µM (inactive)	26 µM (inactive)	51.6 µM (inactive)			28.7 µM (inactive)	22 µM (inactive)	33 µM (inactive)	38.8 µM (inactive)
O=C(c1cc(Cl)ccc1Cl)N1CCN(c2cccc(Cl)c2)CC1	22.8 µM (inactive)	22.9 µM (inactive)	13.5 µM (inactive)	8.85 µM	16 µM (inactive)	> 10 µM (inactive)	12.4 µM (inactive)	21.9 µM (inactive)	10.9 µM (inactive)		12.8 µM (inactive)	14.5 µM (inactive)	33 µM (inactive)		13.9 µM (inactive)	49.5 µM (inactive)	19 µM (inactive)	3.92 µM (inactive)	2.08 µM (inactive)	1.87 µM (inactive)
COc1cc(/C=C/C(=O)CC(=O)/C=C/c2cc(C)c(O)c(OC)c2)cc(C)c1O	> 100 µM (inactive)	> 100 µM (inactive)	> 100 µM (inactive)	> 100 µM	> 100 µM (inactive)	< 0.01 µM (active)	> 100 µM (inactive)	> 100 µM (inactive)	> 100 µM (inactive)	> 100 µM (inactive)	> 100 µM (inactive)	83.4 µM (inactive)	> 100 µM (inactive)	> 100 µM (inactive)	> 100 µM (inactive)		> 100 µM (inactive)	> 100 µM (inactive)	> 100 µM (inactive)	
C[C@]12CC[C@@H]3c4ccc(OS(N)(=O)=O)cc4CC[C@H]3[C@@H]1CCC2=O [EMATE]	84.9 µM (inactive)	5.07 µM (inactive)	49.2 µM (inactive)	38 µM	55.2 µM (inactive)	> 100 µM (inactive)	30.1 µM (inactive)	10.5 µM (inactive)	75.9 µM (inactive)	39.4 µM (inactive)	49.3 µM (inactive)	64 µM (inactive)	57.7 µM (inactive)	> 100 µM (inactive)	42.4 µM (inactive)	59.6 µM (inactive)	46.2 µM (inactive)	24.7 µM (inactive)		31.6 µM (inactive)
